Read-outs that look alike come from different tables or passages of the source.
Legend:
Assay type in all cases: cell-based
[1] = Cytotoxicity of compounds on mammalian cells (MTT); details: mouse, Raw 264.7 cells, read-out: Macrophages CC50 (μM) ±SD
Protocol: Raw 264.7 cells were seeded into 96-well plates at (1 x 10^6 cells) in DMEM supplemented with 10% FBS, 100 μg/mL streptomycin, 100 u/mL penicillin-G, 2g/L NaHCO3 and incubated at 37°C for 24 hours in 5% CO2. The cells were treated with 0–50 μg/mL concentrations of the phenolic compounds for 48 hours at 37°C in 5% CO2. Deferoxamine and amphotericin B at 0–50 μg/mL concentrations were used as positive controls. Cell viability was estimated by measuring the mitochondria oxidative activity by MTT assay and absorbance was read at 570 nm using Thermo Scientific Varioskan LUX. Selectivity index (SI) was calculated as the ratio of the CC50 to IC50 values.

[2] = tested on: Leishmania donovani intracellular amastigotes; assay: Intracellular amastigote assay in infected RAW 264.7 cells; details: for Selectivity Index (CC50/IC50), amastigotes: CC50 Raw 264.7 / IC50 intracellular amastigotes; for IC50: Leishmania donovani
Protocol: Amastigote cultures were prepared as reported by Jain and colleagues. Briefly, Raw 264.7 cells (4 x 10^7 cells) were seeded in 4 chamber slides and 1 x 10^7 cells in 96 well plates and incubated for 24 hours at 37°C in 5% CO2. The RAW 264.7 cells were infected with metacyclic promastigotes (1 x 10^8 cells) at an infection ratio of 1:10 macrophage: parasites and incubated for 24 hours at 37°C in 5% CO2. The overlying medium was removed, and the monolayer intracellular amastigotes were carefully washed four times with serum free M199 to remove free parasites. Freshly prepared M199 containing 10% FBS and the test compounds at concentrations ranging from 0–50 μg/mL were added to the infected cells and incubated for 48 hours at 37°C in 5% CO2. Triplicate incubations were performed in all the experiments. The chamber slides were washed thrice after incubation with M199 without FBS. The slides were then fixed in absolute methanol for 30 sec, rehydrated in 1x PBS for 5 min and stained with DAPI for 15 min. The slides were viewed by fluorescence microscopy and the number of infected macrophages counted using ImageJ Software to determine the infectivity index and IC50 values for amastigotes.
The infected RAW 264.7 cells in the 96 wells microtiter plates were also incubated for 48 hours and washed thrice as above. Sodium dodecyl sulfate (SDS) of concentration 0.05% was added to the wells for 30 sec for controlled lysis with M199 and 10% FBS. After the 30 sec, M199 with 10% FBS was added and the plates incubated at 25°C for 72 hours for the differentiation of the rescued amastigotes to promastigotes. Following incubation, the amastigotes were subjected to MTT assay and the absorbance obtained were used to estimate IC50 values of the compounds against the amastigote forms.

[3] = tested on: Leishmania donovani promastigotes; assay: Promastigote viability assay (MTT); details: for Selectivity Index (CC50/IC50), promastigotes: CC50 Raw 264.7 / IC50 promastigotes; for IC50: Leishmania donovani, read-out: Promastigotes IC50 (μM) ± SD
Protocol: The MTT assay was done as previously described. Briefly, promastigotes (2 x 10^5 cells) were cultured in freshly prepared M-199 medium supplemented with 10% heat inactivated fetal bovine serum in the presence or absence of varying concentrations of the phenolic compounds (0–50 μg/mL) for 72 hours at 25°C. Amphotericin B (0–50 μg/mL) and deferoxamine (0–50 μg/mL) were used as positive controls. After incubation, 5 mg/mL MTT solution was added to the promastigotes in each well and incubated for 3 hours at 25°C. In this assay, the yellow tetrazolium MTT dye was reduced to insoluble formazan crystals (purple color) in living cells using NADH as their reducing agent. Formazan crystals formed after incubation were solubilized with acidified isopropanol and incubated at 37°C for 30 min. The change in color from yellow to purple was read at an absorbance of 570 nm using Thermo Scientific Varioskan LUX. The cell viability and IC50 were determined from the concentration response curve generated using GraphPad Prism 6.0 Software.

[4] = RAW264.7, intracellular amastigotes in RAW 264.7 cells, 48 hours, read-out: Amastigotes IC50 (μM) ± SD

SMILES	CC50 at 48 h [1]	Selectivity Index (CC50/IC50), amastigotes [2]	IC50 ([2]; RAW264.7, 48 h, intracellular amastigotes in RAW 264.7 cells, 48 hours, read-out: Amastigotes IC50 (μM) ± SD)	Selectivity Index (CC50/IC50), promastigotes [3]	IC50 ([3]; MTT, 72 hours at 25°C)	CC50 at 48 h ([1]; Raw 264.7 macrophage cells)	IC50 [2, 4]	IC50 ([2]; RAW264.7, 48 h, read-out: Amastigotes IC50 (μM) ± SD, intracellular amastigotes in RAW 264.7 cells, 48 hours)	IC50 ([3]; 72 h)
COc1cc(/C=C/C(=O)O)ccc1O [Ferulic acid, ferulic acid]	346.7 ± 0.01 µM	6.30	54.98 ± 0.01 µM	5.02	69 ± 0.01 µM				
O=C(O)c1ccccc1O [Salicylic acid, salicylic acid]		0.69		0.83	75.4 ± 0.02 µM	62.99 ± 0.01 µM	90.65 ± 0.04 µM		
O=C(/C=C/c1ccc(O)c(O)c1)O[C@@H]1C[C@](O)(C(=O)O)C[C@@H](O)[C@H]1O [Chlorogenic acid, chlorogenic acid]		1.11		1.11	53.92 ± 0.03 µM	59.9 ± 0.02 µM	53.75 ± 0.4 µM		
COc1cc(C(=O)O)ccc1O [Vanillic acid, vanillic acid]	13.15 ± 0.01 µM	0.19		0.19	68.97 ± 0.02 µM		69.97 ± 0.02 µM		
O=C(O)/C=C/c1ccc(O)c(O)c1 [Caffeic acid, caffeic acid]		2.29		2.21	58.77 ± 0.01 µM	129.92 ± 0.01 µM	56.77 ± 0.01 µM		
O=C(O)c1cc(O)c(O)c(O)c1 [Gallic acid, gallic acid]	33.76 ± 0.02 µM	0.60		0.17	198 ± 0.03 µM		54.65 ± 0.25 µM		
O=C(O)c1ccc(O)c(O)c1 [Protocatechuic acid, protocatechuic acid]	511.9 ± 0.01 µM			7.05				> 100 µM	72.54 ± 0.01 µM
O=C(O)C=Cc1ccc(O)cc1 [p-Coumaric acid]	322.6 ± 0.15 µM			4.24	76.09 ± 0.01 µM		> 100 µM		

— article PMC6405172, “In vitro activity and mode of action of phenolic compounds on Leishmania donovani” (PLoS Neglected Tropical Diseases, 2019)
